Source: US5767134A, “Prodrug forms of ribonucleotide reductase inhibitors 3-AP and 3-AMP” (Vion Pharmaceuticals, Inc., priority 1997, dated 1998)
Structures can show the parent of a compound that is named as a salt.

Tests used:
[1] = Conversion of Prodrug I (para) to 3-AP in vitro in presence of S9 fraction of rat liver (FIG. 9); assay type: in vitro ADME
Description: FIG. 9 depicts a graph of the conversion of Prodrug I (para) to 3-AP in the presence of liver S9 fraction.
A 1 μM solution of Prodrug I in culture media was incubated with approximately 2.5 mg of liver S9 fraction.

[2] = system: A2780 human ovarian carcinoma; conditions: compared with other HCTs reported to date; cited from earlier work
L1210 leukemia = conditions: compared with other HCTs reported to date; cited from earlier work
[3] = vs hydroxyurea; cited from earlier work
M-109 lung carcinoma = conditions: compared with other HCTs reported to date; cited from earlier work
[4] = Water solubility in deionized water; assay type: physicochemical; conditions: for Dissolution observed in water: 3-AP: 5 mg in 100 mL, room temperature, 2 hours, prodrug I: 8 mg in 0.5 mL, a few minutes
Description: In order to test the water solubility of Prodrug I (disodium salt) compared to 3-AP, the following procedure was used. To test the water solubility of 3-AP in deionized water, 5 mg of 3-AP was placed in a 125 mL erlenmeyer flask to which was added 100 mL of water. The mixture was well shaken at room temperature. […] Total water solubility of 3-AP in deionized water was <1 mg/20 mL. In the case of prodrug I (para), 8 mg of the prodrug was placed in a 50 mL erlenmeyer flask.

M109 tumor = M109 tumor growth in Balb/c mice with two vehicle controls (FIG. 11); assay type: in vivo
Description: (§1) FIGS. 10 and 11 depict a graph comparing the reduction in M109 tumor growth in Balb/c Mice treated with a control, 3-AP or Prodrug I (para).
(§2) Balb/c mice were subcutaneously injected in the right flank on Day 0 with 0.2 mL of a 5×10^6 cell/mL suspension of M109 tumor cells which had been grown to log phase in culture, trypsin digested to separate, washed with PBS and reconstituted. Injections of 3-AP, Prodrug I, or Vehicle Control were given to the […] twice on Day 3, once on Day 4, twice on Day 6 and once on Day 7. Ten mice received only injections of 3 AP, each injection providing a dose of 4.5 mg/kg body weight. Ten mice received only injections of Prodrug I, each injection providing a dose of 10 mg/kg body weight. Ten mice received only injections of the vehicle control. […] FIG. 11 also compares the reduction in M109 tumor growth in Balb/c Mice using two vehicle controls (1-phosphate buffered […] and 2- 10% DMSO). […] Control I was used as a control for the prodrug; control 2 was used for the parent drug.
(§3) Balb/c mice were subcutaneously injected in the right flank on Day 0 with 0.2 mL of a 5×10^6 cell/mL suspension of M109 tumor cells which had been grown to log phase in culture, trypsin digested to separate, washed with PBS and reconstituted. […]

M109 tumor cells = test: In vivo efficacy, M109 tumor growth in Balb/c mice (FIG. 10); conditions: 10 mg/kg per injection vs equal molar dose of 3-AP (4.5 mg/kg)
Description: as §1, §2, §3

[5] = Stability of Prodrug I in culture media alone, HPLC assay; assay type: in vitro ADME; conditions: 37° C., two hours

Structure (SMILES): NC(=S)NN=Cc1ncccc1N [Prodrug 3-AP, 3-aminopyridine-2-carboxaldehyde thiosemicarbazone]
- Stability of recovered 3-AP in liver S9 fraction ([1]; liver S9 fraction): stable
- Therapeutic effects against A2780 human ovarian carcinoma [2]: much better therapeutic effects
- Therapeutic effects against L1210 leukemia (L1210 leukemia): much better therapeutic effects
- Antineoplastic activity in comparison with hydroxyurea (HU) [3]: significant antineoplastic activity
- Therapeutic effects against M-109 lung carcinoma (M-109 lung carcinoma): much better therapeutic effects
- Dissolution observed in water [4]: not totally dissolved
- Total water solubility in deionized water ([4]; 120 min): < 1 mg/20 mL

Structure (SMILES): Cc1ccnc(C=NNC(N)=S)c1N [Prodrug 3-AMP, 3-amino-4-methylpyridine-2-carboxaldehyde thiosemicarbazone]
- Therapeutic effects against A2780 human ovarian carcinoma [2]: much better therapeutic effects
- Therapeutic effects against L1210 leukemia (L1210 leukemia): much better therapeutic effects
- Antineoplastic activity in comparison with hydroxyurea (HU) [3]: significant antineoplastic activity
- Therapeutic effects against M-109 lung carcinoma (M-109 lung carcinoma): much better therapeutic effects

Structure (SMILES): NC(=S)NN=Cc1ncccc1NC(=O)OCc1ccc(OP(=O)(O)O)cc1 [Prodrug I (para)]
- Course of prodrug concentration with liver S9 fraction ([1]; 1 μM, approximately 2.5 mg liver S9 fraction, 37° C.): decreased very rapidly
- Prodrug concentration after incubation with liver S9 fraction ([1]; 1 μM, approximately 2.5 mg liver S9 fraction, after 100 minutes at 37° C.): below detection limits
- Other metabolites found ([1]; 1 μM, liver S9 fraction, 37° C.): no other metabolites were found
- Rate of conversion of Prodrug I to 3-AP ([1]; liver S9 fraction, 37° C.): 20 nmole/min/mg rat liver tissue
- metabolised at 1 µM ([1]; rat, 1 μM, liver S9 fraction, 37° C., read-out: Prodrug recovered as 3-AP): ~80%
- Anti-tumor activity compared to 3-AP or the two controls (M109 tumor; controls PBS and 10% DMSO): superior anti-tumor activity
- Reduction of M109 tumor growth compared with 3-AP (M109 tumor; mole-to-mole basis): more effective
- Reduction of tumor growth compared with 3-AP (M109 tumor cells; tumors measured Days 7, 10, 13, 17): significantly more effective
- Reduction of tumor growth compared with 3-AP (M109 tumor cells; tumors measured Days 7, 10, 13, 17, listed as Prodrug I): slightly more effective
- Prodrug concentration in culture media alone [5]: relatively stable
- 3-AP found in culture media alone ([5]; HPLC): no 3-AP was found

Structure (SMILES): NC(=S)NN=Cc1ncccc1NC(=O)OCc1ccc(OP(=O)(O)O)cc1 [Prodrug I (disodium salt)]
- Dissolution observed in water [4]: readily dissolved
- Increase in water solubility over 3-AP ([4]; disodium salt vs 3-AP, deionized water): more than 300 fold
- solubility ([4]; disodium salt, deionized water, read-out: Total water solubility in deionized water): ≥ 16 mg/mL
